The term IC50 denotes the concentration at which inhibition is half-maximal. A low value points to higher potency. As usually defined, the inhibition is the drop in the measured response relative to a control, in per cent. The low end stands for little suppression, the high end for strong suppression.

Square brackets hold non-standard residues; d marks the D form. Peptide text beside a SMILES is read from it. * marks the point of attachment. Sta = CC(C)C[C@H](N)[C@@H](O)CC(=O)O; Isovaleryl = CC(C)CC(=O)*

The text below walks through data of patent publication US5147888A, “N-terminal indolyy indolylalkylaminodiol β-amino acid derivatives” (G. D. Searle & Co., priority 1991, dated 1992).

One assay addresses T1, human renin (Homo sapiens, UniProt P00797).
T1 construct: purchased National Institute for Biological Standards, London
T1 sequence (P00797 67-406): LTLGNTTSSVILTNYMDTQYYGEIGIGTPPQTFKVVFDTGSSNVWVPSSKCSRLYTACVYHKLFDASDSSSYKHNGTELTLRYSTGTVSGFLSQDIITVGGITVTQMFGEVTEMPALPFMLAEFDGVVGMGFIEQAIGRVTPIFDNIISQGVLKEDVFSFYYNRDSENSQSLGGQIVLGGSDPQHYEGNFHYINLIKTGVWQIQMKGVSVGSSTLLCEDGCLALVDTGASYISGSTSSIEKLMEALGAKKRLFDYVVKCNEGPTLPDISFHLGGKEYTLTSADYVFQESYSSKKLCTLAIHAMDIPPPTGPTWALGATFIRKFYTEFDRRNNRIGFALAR
The assay can be described thus: in vitro human renin inhibition assay (angiotensin I determined by radioimmunoassay). Type of assay: biochemical. The note with it: pH 7.4, 37° C., two hours; for inhibition at 1 µM: 10^-6 M. The procedure:
Compounds of Formula I were evaluated as inhibitors of human renin in an in vitro assay. This human renin inhibition test has been previously described in detail [Papaioannou et al., Clinical and Experimental Hypertension, A7(9), 1243-1257 (1985)]. Human renin was obtained from the National Institute for Biologivcal Standards, London. An incubation mixture was prepared containing in a total volume of 0.25 mL 100 mM Tris-acetate buffer at pH 7.4, 25×10^-6 Goldblatt units of renin, 0.05 mL of plasma from human volunteers taking oral contraceptives,6.0 mM sodium EDTA, 2.4 mM phenylmethyl sulfonyl fluoride, 1.5 mM 8-hydroxyquinoline, 0.4 mg/mL BSA, and 0.024 mg/mL neomycin sulfate. This mixture was incubated for two hours at 37° C. in the presence or absence of renin inhibitors. The produced angiotensin I was determined by radioimmunoassay (New England Nuclear kit). Test compounds to be assayed were dissolved in DMSO and diluted with 100 mM Tris-acetate buffer at pH 7.4 containing 0.5% BSA to the appropriate Concentration. The final concentration of organic solvent in the reaction mixture was less than 1%. Control incubations at 37° C. were used to correct for effects of organic solvent on renin activity.

The subject of a further assay is cathepsin D. The note with it: cited from earlier work.
The subject of another assay is pepsin. To be noted: cited from earlier work.
The subject of a further assay is hog renin. To be noted: after the injection of hog renin into nephrectomized rats; cited from earlier work.
In a further assay the test system is renin. The note with it: cited from earlier work.

In the case of `CC(C)C[C@H](O)[C@H](O)[C@H](CC1CCCCC1)NC(=O)[C@H](C)CNC(=O)c1cc2cccc(Cl)c2o1` [Example 23], on human renin, the IC50 was determined as 1800 nM.

Consider `COc1ccc(CCC(=O)NC[C@@H](C)C(=O)N[C@@H](CC2CCCCC2)[C@@H](O)[C@@H](O)CC(C)C)cc1` [Example 13, N-[3-[[1S,1R*-(cyclohexylmethyl)-2S*,3R*-dihydroxy-5-methylhexyl]amino]-2S*-methyl-3-oxopropyl]-4-methoxybenzenepropanamide], for which, at human renin (5 × 10^-7 M), the inhibition at 0.5 µM came out at 30%.

`CC(C)C[C@H](O)[C@H](O)[C@H](CC1CCCCC1)NC(=O)[C@H](C)CN(C)C(=O)CCCC1CCCCC1` (relative stereo) [Example 12, N-[3-[[1S,1R*-(cyclohexylmethyl)-2S*,3R*-dihydroxy-5-methylhexyl]amino]-2S*-methyl-3-oxopropyl]-N-methyl-cyclohexanebutanamide] registered an inhibition at 1 µM at human renin of 23%.

At human renin, `CC(C)C[C@H](O)[C@H](O)[C@H](CC1CCCCC1)NC(=O)[C@H](C)CNC(=O)Cc1c[nH]c2ccccc12` [Example 21, N-[3-[[1S,1R*-(cyclohexylmethyl)-2S*,3R*-dihydroxy-5-methylhexyl]amino]-2S*-methyl-3-oxopropyl]-1H-indole3-acetamide] had an inhibition at 1 µM of 30%.

On human renin, `CC(C)C[C@H](O)[C@H](O)[C@H](CC1CCCCC1)NC(=O)[C@H](C)CNC(=O)CCCc1ccccc1` (relative stereo) [Example 6, N-[3-[[1S,1R*-(cyclohexylmethyl)-2S*,3R*-dihydroxy-5-methylhexyl]amino]-2S*-methyl-3-oxopropyl]benzenebutanamide] displayed an IC50 of 125 nM.

Consider `CCn1cc(C(=O)NC[C@@H](C)C(=O)N[C@@H](CC2CCCCC2)[C@@H](O)[C@@H](O)CC(C)C)c(=O)c2ccc(C)nc21` [Example 16, N-[3-[[1S,1R*-(cyclohexylmethyl)-2S*,3R*-dihydroxy-5-methylhexylamino]amino]-2S*-methyl-3-oxopropyl-nalidixylamide], for which inhibition at human renin was half-maximal at 450 nM (IC50).

Regarding `CC(C)CC(=O)N[C@H](C(=O)N[C@H](C(=O)N[C@@H](CC(C)C)[C@@H](O)CC(=O)N[C@@H](C)C(=O)N[C@@H](CC(C)C)[C@@H](O)CC(=O)O)C(C)C)C(C)C` [pepstatin] (Isovaleryl-VV[Sta]A[Sta]-OH), the “inhibitor of aspartyl proteases: cathepsin D” value in the assay on cathepsin D is reported as “inhibitor”. For the same compound, the “inhibitor of aspartyl proteases: pepsin” value with pepsin is recorded as “inhibitor”. In addition, in the assay with hog renin, the “blood pressure reduction in vivo” value is reported as “reduce blood pressure”. In addition, the “inhibitor of aspartyl proteases: renin” value in the assay on renin was “inhibitor”.

For the compound `CC(C)C[C@H](O)[C@H](O)[C@H](CC1CCCCC1)NC(=O)[C@H](C)CN(C)C(=O)CCCc1ccccc1` (relative stereo) [Example 10, N-[3-[[1S,1R*-(cyclohexylmethyl)-2S*,3R*-dihydroxy-5-methylhexyl]amino-]-2S*-methyl-3-oxopropyl]-N-methyl-benzenebutanamide], on human renin, half-maximal inhibition (IC50) was put at 115 nM. This counts as sub-micromolar.

For the compound `CC(C)C[C@H](O)[C@H](O)[C@H](CC1CCCCC1)NC(=O)[C@H](C)CNC(=O)c1cc2ccccc2[nH]1` (relative stereo) [Example 7, N-[3-[[1S,1R*-(cyclohexylmethyl)-2S*,3R*-dihydroxy-5-methylhexyl]amino]-2S*-methyl-3-oxopropyl]-1H-indole-2-carboxamide], half-maximal inhibition against human renin (IC50) was put at 26 nM. Against the preceding compound, the IC50 is about 4.4-fold lower.

At human renin, `CC(C)C[C@H](O)[C@H](O)[C@H](CC1CCCCC1)NC(=O)[C@H](C)CNC(=O)c1cc(=O)c2ccccc2o1` [Example 26, N-[3-[[1S,1R*-(cyclohexylmethyl)-2S*,3R*-dihydroxy-5-methylhexyl]amino]-2S*-methyl-3-oxopropyl]-4-oxo-4H-1-benzopyran-2-carboxamide] returned an IC50 of 520 nM.

The compound `CC(C)C[C@H](O)[C@H](O)[C@H](CC1CCCCC1)NC(=O)[C@H](C)CNC(=O)CCc1c[nH]c2ccccc12` [Example 22, N-[3-[[1S,1R*-(cyclohexylmethyl)-2S*,3R*-dihydroxy-5-methylhexyl]amino]-2S*-methyl-3-oxopropyl]-1H-indole3-propanamide] yielded an IC50 against human renin of 30 nM.

Consider `COc1cccc2cc(C(=O)NC[C@@H](C)C(=O)N[C@@H](CC3CCCCC3)[C@@H](O)[C@@H](O)CC(C)C)oc12` [Example 24, N-[3-[[1S,1R*-(cyclohexylmethyl)-2S*,3R*-dihydroxy-5-methylhexyl]amino]-2S*-methyl-3-oxopropyl]-7-methoxy-benzofuran-2-carboxamide], for which the IC50 against human renin was determined as 3000 nM.

In the case of `CC(C)C[C@H](O)[C@H](O)[C@H](CC1CCCCC1)NC(=O)[C@H](C)CNC(=O)c1c[nH]c2ccccc12` [Example 20, N-[3-[[1S,1R*-(cyclohexylmethyl)-2S*,3R*-dihydroxy-5-methylhexyl]amino]-2S*-methyl-3-oxopropyl]-1H-indole3-carboxamide], the inhibition at 10 µM on human renin (10^-5 M) amounted to 27%.

`CC(C)C[C@H](O)[C@H](O)[C@H](CC1CCCCC1)NC(=O)[C@H](C)CNC(=O)c1coc2ccccc2c1=O` [Example 25, N-[3-[[1S,1R*-(cyclohexylmethyl)-2S*,3R*-dihydroxy-5-methyhexyl]amino]-2S*- methyl-3-oxopropyl]-4-oxo-4H-1-benzopyran-3-carboxamide]: the IC50 against human renin worked out at 1100 nM.

As for `CC(C)C[C@H](O)[C@H](O)[C@H](CC1CCCCC1)NC(=O)[C@H](C)CNC(=O)CCCC1CCCCC1` (relative stereo) [Example 11, N-[3-[[1S,1R*-(cyclohexylmethyl)-2S*,3R*-dihydroxy-5-methylhexyl]amino]-2S*-methyl-3-oxopropyl]cyclohexane-butanamide], the IC50 against human renin is 180 nM. Against the preceding compound, the IC50 is about 6.1-fold lower.
